Data reported in patent US20170190671A1, “BIS(ARYL)CATECHOL DERIVATIVES AS HERBICIDES” (E I DU PONT DE NEMOURS AND COMPANY, priority 2014, published 2017).

Tests used:
Assay in all cases: Test C preemergence
Format in all cases: in vivo
[1] = system: Italian ryegrass (Lolium multiflorum); conditions: Lolium multiflorum, pre-emergence, 336 h, preemergence, scale 0 to 100, read-out: Plant response rating, Ryegrass, Italian
Procedure, shortened: (§1)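 Seeded loam-sand soil (preemergence) or young potted plants of 2-18 cm (postemergence) received test chemical formulated with surfactant in a non-phytotoxic solvent. Pots were kept in the greenhouse for 13-15 days before a visual 0-100 control rating relative to controls.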

[2] = system: barnyardgrass (Echinochloa crus-galli); conditions: Echinochloa crus-galli, pre-emergence, preemergence, scale 0 to 100, read-out: Plant response rating, Barnyardgrass
Procedure, shortened: as §1

[3] = system: blackgrass (Alopecurus myosuroides); conditions: Alopecurus myosuroides, pre-emergence, 336 h, preemergence, scale 0 to 100, read-out: Plant response rating, Blackgrass
Procedure, shortened: as §1

corn (Zea mays) = conditions: Zea mays, pre-emergence, 336 h, preemergence, scale 0 to 100
Procedure, shortened: as §1

[4] = system: galium (catchweed bedstraw, Galium aparine); conditions: Galium, pre-emergence, 336 h, preemergence, scale 0 to 100, read-out: Plant response rating, Galium
Procedure, shortened: as §1

[5] = system: giant foxtail (Setaria faberii); conditions: Setaria faberi, pre-emergence, 336 h, preemergence, scale 0 to 100, read-out: Plant response rating, Foxtail, Giant
Procedure, shortened: as §1

[6] = system: lambsquarters (Chenopodium album); conditions: Chenopodium album, pre-emergence, 336 h, preemergence, scale 0 to 100, read-out: Plant response rating, Lambsquarters
Procedure, shortened: as §1

[7] = system: large (Lg) crabgrass (Digitaria sanguinalis); conditions: Digitaria sanguinalis, pre-emergence, 336 h, preemergence, scale 0 to 100, read-out: Plant response rating, Crabgrass, Large
Procedure, shortened: as §1

[8] = system: oilseed rape (Brassica napus); conditions: Brassica napus, pre-emergence, preemergence, scale 0 to 100, read-out: Plant response rating, Oilseed Rape
Procedure, shortened: as §1

[9] = system: ragweed (common ragweed, Ambrosia elatior); conditions: Ambrosia artemisiifolia, pre-emergence, 336 h, preemergence, scale 0 to 100, read-out: Plant response rating, Ragweed
Procedure, shortened: as §1

soybean (Glycine max) = conditions: Glycine max, pre-emergence, preemergence, scale 0 to 100, read-out: Plant response rating, Soybean
Procedure, shortened: as §1

[10] = system: velvetleaf (Abutilon theophrasti); conditions: Abutilon theophrasti, pre-emergence, preemergence, scale 0 to 100, read-out: Plant response rating, Velvetleaf
Procedure, shortened: as §1

[11] = system: waterhemp (common waterhemp, Amaranthus rudis); conditions: Amaranthus tuberculatus, pre-emergence, preemergence, scale 0 to 100, read-out: Plant response rating, Waterhemp
Procedure, shortened: as §1

[12] = system: winter wheat (Triticum aestivum); conditions: Triticum aestivum, pre-emergence, 336 h, preemergence, scale 0 to 100, read-out: Plant response rating, Wheat
Procedure, shortened: as §1

[13] = system: yellow nutsedge (Cyperus esculentus); conditions: Cyperus, pre-emergence, 336 h, preemergence, scale 0 to 100, read-out: Plant response rating, Nutsedge, Yellow
Procedure, shortened: as §1

Fc1cnc(Oc2c(Cl)cccc2Oc2ncc(Cl)cn2)nc1 [Compound 18, 5-chloro-2-[5-chloro-6-[(5-fluoro-2-pyrimidinyl)oxy]phenoxy]pyrimidine]
pest or weed control at 31 g/ha ([1]; 31 g ai/ha): 30%
pest or weed control at 62 g/ha ([1]; 62 g ai/ha): 70%
pest or weed control at 125 g/ha ([1]; 125 g ai/ha): 85%
pest or weed control at 250 g/ha ([1]; 250 g ai/ha): 95%
pest or weed control at 31 g/ha ([2]; 31 g ai/ha): 75%
pest or weed control at 62 g/ha ([2]; 62 g ai/ha): 100%
pest or weed control at 125 g/ha ([2]; 125 g ai/ha): 100%
pest or weed control at 250 g/ha ([2]; 250 g ai/ha): 100%
pest or weed control at 31 g/ha ([3]; 31 g ai/ha): 15%
pest or weed control at 62 g/ha ([3]; 62 g ai/ha): 90%
pest or weed control at 125 g/ha ([3]; 125 g ai/ha): 95%
Corn plant response rating (crop injury, 0 = no effect, 100 = complete kill) at 31 g/ha (corn (Zea mays); 31 g ai/ha): 10%
Corn plant response rating (crop injury, 0 = no effect, 100 = complete kill) at 62 g/ha (corn (Zea mays); 62 g ai/ha): 40%
Corn plant response rating (crop injury, 0 = no effect, 100 = complete kill) at 125 g/ha (corn (Zea mays); 125 g ai/ha): 60%
pest or weed control at 31 g/ha ([4]; 31 g ai/ha): 100%
pest or weed control at 62 g/ha ([4]; 62 g ai/ha): 100%
pest or weed control at 125 g/ha ([4]; 125 g ai/ha): 100%
pest or weed control at 31 g/ha ([5]; 31 g ai/ha): 98%
pest or weed control at 62 g/ha ([5]; 62 g ai/ha): 100%
pest or weed control at 125 g/ha ([5]; 125 g ai/ha): 100%
pest or weed control at 31 g/ha ([6]; 31 g ai/ha): 85%
pest or weed control at 62 g/ha ([6]; 62 g ai/ha): 95%
pest or weed control at 125 g/ha ([6]; 125 g ai/ha): 95%
pest or weed control at 31 g/ha ([7]; 31 g ai/ha): 100%
pest or weed control at 62 g/ha ([7]; 62 g ai/ha): 100%
pest or weed control at 125 g/ha ([7]; 125 g ai/ha): 100%
plant injury at 31 g/ha ([8]; 31 g ai/ha): 100%
plant injury at 62 g/ha ([8]; 62 g ai/ha): 100%
plant injury at 125 g/ha ([8]; 125 g ai/ha): 100%
plant injury at 250 g/ha ([8]; 250 g ai/ha): 100%
pest or weed control at 31 g/ha ([9]; 31 g ai/ha): 85%
pest or weed control at 62 g/ha ([9]; 62 g ai/ha): 100%
pest or weed control at 125 g/ha ([9]; 125 g ai/ha): 95%
pest or weed control at 250 g/ha ([9]; 250 g ai/ha): 95%
plant injury at 31 g/ha (soybean (Glycine max); 31 g ai/ha): 60%
plant injury at 62 g/ha (soybean (Glycine max); 62 g ai/ha): 80%
plant injury at 125 g/ha (soybean (Glycine max); 125 g ai/ha): 90%
plant injury at 250 g/ha (soybean (Glycine max); 250 g ai/ha): 90%
pest or weed control at 31 g/ha ([10]; 31 g ai/ha): 85%
pest or weed control at 62 g/ha ([10]; 62 g ai/ha): 100%
pest or weed control at 125 g/ha ([10]; 125 g ai/ha): 100%
pest or weed control at 250 g/ha ([10]; 250 g ai/ha): 100%
pest or weed control at 31 g/ha ([11]; 31 g ai/ha): 100%
pest or weed control at 62 g/ha ([11]; 62 g ai/ha): 100%
pest or weed control at 125 g/ha ([11]; 125 g ai/ha): 100%
pest or weed control at 250 g/ha ([11]; 250 g ai/ha): 100%
plant injury at 31 g/ha ([12]; 31 g ai/ha): 0%
plant injury at 62 g/ha ([12]; 62 g ai/ha): 15%
plant injury at 125 g/ha ([12]; 125 g ai/ha): 70%
plant injury at 250 g/ha ([12]; 250 g ai/ha): 85%
pest or weed control at 31 g/ha ([13]; 31 g ai/ha): 0%
pest or weed control at 62 g/ha ([13]; 62 g ai/ha): 25%
pest or weed control at 125 g/ha ([13]; 125 g ai/ha): 25%
